Measurements reported in PubChem BioAssay AID179 (DTP/NCI, 2004).
Activity calls are given as the source filed them.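 Rule for the calls: active = compounds giving half or more protection of infected cells from virus-caused growth loss, again on retest; inactive = the rest.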 *1 amine or outer side, *2 acyl side, *3 side chain or, on linkers, in order; H or OH if unused. Where a SMILES comes first, the peptide text is derived from it. Bridges are numbered along the chain shown (N, C = ends). Roman numbers before positions name the chains, in order. [ ]: non-standard residue; d: D form. Actinocin(9to1) = Cc1c2oc3c(C)ccc(C(=O)[*:1])c3nc-2c(C(=O)[*:2])c(N)c1=O; aThr = C[C@H](O)[C@H](N)C(=O)O; NMeV = CN[C@H](C(=O)O)C(C)C; Sar = CNCC(=O)O

Tested on: CEM cells HIV-1 protection, formazan growth assay
Assay: NCI AIDS Antiviral Assay
Conditions: for IC50: measured here: growth of uninfected CEM cells
Outline: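 Protection of CEM cells against HIV-1 was scored from cell growth (soluble formazan) across five concentrations, with parallel uninfected cells. Lack of protection may reflect toxicity.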

| Compound | EC50 | IC50 | outcome |
| --- | --- | --- | --- |
| Cc1nn(C(=O)c2ccc(Cl)cc2)c2c1C(c1ccc(O)cc1)SC(N)=N2 (centres undefined) | > 200 µM | > 200 µM |  |
| CC(=O)Nc1cc2c(cc1O)CC[C@@H]1[C@@H]2CC[C@]2(C)[C@@H](O)CC[C@@H]12 | > 200 µM | 20.9 µM |  |
| O=c1c2cc3c(=O)n(-c4ccccc4Cl)c(=O)c3cc2c(=O)n1-c1ccccc1Cl | > 40.7 µM | > 40.7 µM |  |
| COc1ccc(C(=O)/C=C/c2ccc(OCCCOc3ccc(/C=C/C(=O)c4ccc(OC)cc4)cc3)cc2)cc1 | > 200 µM | > 200 µM |  |
| O=S1c2ccccc2-c2ccccc21 | > 447 µM | > 447 µM |  |
| O=C1/C(=C/c2ccccc2)CCCc2ccccc21 | > 200 µM | 21.4 µM |  |
| O=[N+]([O-])C(=C(Cl)Cl)C(Cl)=C(Cl)Cl | > 200 µM | > 200 µM |  |
| CC(C)OC(=O)C1(C(C)C)CCc2ccc(C(=O)CCC(=O)O)cc21 (centres undefined) | > 200 µM | 178 µM |  |
| C=C1C(=O)O[C@@H]2[C@H]1CCC(C)=C1C=CC(=O)[C@]12C |  |  | inactive |
| C#CCSc1nnnn1-c1ccccc1 | > 200 µM | 3.24 µM |  |
| CCCNc1nc2c(c(=O)n1-c1ccccc1)C=C(C(=O)OC)CCN2S(=O)(=O)c1ccc(C)cc1 | > 14.1 µM | > 14.1 µM |  |
| COC(O)C(=O)c1ccc2c(c1)CC1(C2)Cc2cc3c(cc2C1=O)CCC3 (centres undefined) | > 200 µM | 32.4 µM |  |
| COc1ccn(C)c(=O)c1C#N | > 1510 µM | > 1510 µM |  |
| CCCCCCCCCCc1c2nc(c(CCCCCCCCCC)c3ccc([nH]3)c(CCCCCCCCCC)c3ccc([nH]3)c(CCCCCCCCCC)c3nc1C=C3)C=C2 | > 100 µM | > 100 µM |  |
| CC#N.CC#N.COC(=O)[C@@H]1CN(C(=O)c2ccccc2)C(=O)[N-]1.COC(=O)[C@@H]1CN(C(=O)c2ccccc2)C(=O)[N-]1.COC(=O)[C@@H]1CN(C(=O)c2ccccc2)C(=O)[N-]1.COC(=O)[C@@H]1CN(C(=O)c2ccccc2)C(=O)[N-]1.[Rh+2].[Rh+2] | 10.7 µM | 87.1 µM |  |
| Cc1ccccc1-c1nc2ccc(N)nc2nc1N |  |  | inactive |
| C=CP(CCP(CCP(C=C)N(CC)CC)c1ccccc1)N(CC)CC (centres undefined) | > 6.46 µM | > 6.46 µM |  |
| CC(C)(C)N/N=C(\C(=O)Nc1nc(=S)[nH][nH]1)C1C(=O)Nc2ccccc2S1=O (centres undefined) |  |  | inactive |
| Cc1cccc(C(O)c2ccncc2)c1O (centres undefined) | > 200 µM | 191 µM |  |
| N#C/C(=C\c1cc(F)cc(F)c1)c1ccccn1 | > 200 µM | 26.3 µM |  |

| Compound | EC50 | IC50 | outcome |
| --- | --- | --- | --- |
| NCCCCN(CCCN)C(=O)OCc1ccccc1 | > 200 µM | > 200 µM |  |
| N#Cc1c(N)oc(-c2ccc([N+](=O)[O-])cc2)c1C#N | > 200 µM | 67.6 µM |  |
| COC(=O)C1CC2CC1C1C2SC(F)(F)C1(F)F (centres undefined) | > 200 µM | > 200 µM |  |
| CCC1c2cc3n(c(=O)c2COC1O)Cc1c-3nc2ccccc2c1Cl (centres undefined) | > 10 µM | 6.31 µM |  |
| CC(C)(O)CCC(=O)[C@](C)(O)[C@H]1[C@H](O)C[C@@]2(C)[C@@H]3CC=C4[C@@H](C[C@@H](O)[C@@H](O)C4(C)C)[C@]3(C)C(=O)C[C@]12C | > 200 µM | > 200 µM |  |
| COc1cc(C2c3cc4c(cc3C(NCC(O)CO)C3COC(=O)[C@H]23)OCO4)cc(OC)c1OC (some centres undefined) |  |  | inactive |
| CCC(c1ccccc1)c1noc(CCN(CC)CC)n1 (centres undefined) | > 200 µM | 33.9 µM |  |
| CC(C)C1C(=O)N(c2c(F)c(F)c(F)c(F)c2F)C(=S)N1CCS(=O)c1ccccc1 (centres undefined) | > 200 µM | 9.33 µM |  |
| COC(=O)C(=O)C(C(=O)Nc1cccc(C)c1C)C1Sc2ccccc2NC1=O (centres undefined) | > 17.4 µM | 16.6 µM |  |
| COc1cc(/C=N/NC2=NCCCCN2)ccc1O | > 200 µM | > 200 µM |  |
| COC(=O)c1cc(C(=CCl)c2cc(C(=O)OC)c(OC)c(Br)c2C)c(C)c(Br)c1OC | > 200 µM | 6.46 µM |  |
| O=C1c2ccccc2SC[C@@H]2CCCN12 | > 407 µM | > 407 µM |  |
| CC(C)=C/C(CC(O)(C(F)(F)F)C(F)(F)F)=N\O | > 200 µM | > 200 µM |  |
| Cc1c2oc3c(C)ccc(C(=O)N[C@@H]4C(=O)N[C@H](C(C)C)C(=O)N5CCC[C@H]5C(=O)N(C)CC(=O)N(C)[C@@H](C(C)C)C(=O)O[C@H]4C)c3nc-2c(C(=O)N[C@@H]2C(=O)N[C@H](C(C)C)C(=O)N3CCC[C@H]3C(=O)N(C)CC(=O)N(C)[C@@H](C(C)C)C(=O)O[C@H]2C)c(N)c1=O (I: [aThr][dV]P[Sar][NMeV] / II: [aThr][dV]P[Sar][NMeV]; ester I:1-I:C, II:1-II:C; linker I:N-II:N via Actinocin(9to1)) | > 0.302 µM | 9.55e-05 µM |  |
| CN(C)c1ccc(N=Nc2ccc(/C=C/c3ccnc4ccccc34)cc2)cc1 | > 19.1 µM | > 19.1 µM |  |
| CCCCCCCCCCCCCCCC1=NCCN1C | > 45.7 µM | 35.5 µM |  |
| Cc1cc(Cl)ccc1NC(=O)C(=O)Cc1occc(=O)c1O | > 295 µM | > 295 µM |  |
| CCOC(=O)C1N(S(=O)(=O)c2ccc(C)cc2)CCC12C(c1ccc(OC)cc1)NC1CCCCC12 (centres undefined) |  |  | inactive |
| Cc1sc2nc(N(C)C)oc(=O)c2c1C | > 200 µM | 75.9 µM |  |
| CCOC(=O)C1CCn2c(nc3c2c(=O)n(C)c(=O)n3C)S1 (centres undefined) |  |  | inactive |
